Values of other authors, collected in patent publication US11094527B2, “Wet clean solutions to prevent pattern collapse” (INTERNATIONAL BUSINESS MACHINES CORPORATION, priority 2018, dated 2021).
Like-named read-outs stand apart in the source and are kept apart here.

Legend:
[1] = not given; remark: listed apart in the source

c1ccccc1 [Benzene]
Surface tension (at about 20° C.): <30 mN/m

CC(C)O [Isopropyl alcohol, reference compound]
Water solubility (in words) [1]: miscible in water
Water solubility ([1]; temperature not given): Miscible
Surface tension (at about 20° C.): <30 mN/m

Diethyl ether
Water solubility (in words) [1]: low water solubility
Water solubility ([1]; 20° C.): 6.9 g/100 mL
Surface tension (at about 20° C.): 16.5 mN/m
